Data on 21 compounds can be found in US20250101028A1, “HETEROCYCLIC COMPOUNDS, COMPOSITIONS THEREOF, AND METHODS OF TREATMENT THEREWITH” (BeiGene, Ltd., priority 2022, published 2025).

SMILES strings stand for the structures.

This experiment deals with T1, GST-tagged GDP-loaded KRAS G12V (amino acids 1-169) (Homo sapiens, UniProt P01116, G12V).
T1 construct: GST-tagged GDP-loaded KRAS G12V (amino acids 1-169); made in house; host or cells: E. coli
T1 sequence (P01116 1-169 isoform P01116-2 G12V): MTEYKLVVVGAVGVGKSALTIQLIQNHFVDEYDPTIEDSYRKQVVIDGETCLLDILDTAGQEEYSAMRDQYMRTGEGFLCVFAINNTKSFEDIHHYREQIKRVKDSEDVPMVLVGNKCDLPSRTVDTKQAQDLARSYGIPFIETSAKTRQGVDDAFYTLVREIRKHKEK
The experiment is described as follows: KRAS G12V probe displacement assay (TR-FRET). Type of experiment: binding. The following applies: displacement of biotinylated probe 2 from GDP-loaded KRAS G12V. An outline of the steps: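 GST-tagged GDP-loaded KRAS 1-169 (WT 3 nM; G12V 2 nM final) preincubated 1 h at 24 °C with serially diluted compound in HEPES pH 7.5 buffer, then biotinylated probe added (probe 1 60 nM for WT; probe 2 2.5 nM for G12V), 1 h. Anti-GST-Tb/streptavidin-XL665 TR-FRET 665/620 ratio; IC50 by four-parameter fit.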
Background: Time-resolved FRET reads energy transfer from a long-lived donor to a nearby acceptor.
One may read the IC50 as the concentration that gives 50% inhibition. A higher IC50 goes with lower potency. Turning to `CC[C@@H]1COCCN1c1nc(OC[C@@]23CCCN2C[C@H](F)C3)nc2c(F)c(-c3cc(N)cc(Cl)c3C(F)(F)F)ncc12` [Example 117, 3-chloro-5-(4-((R)-3-ethylmorpholino)-8-fluoro-2-(((2R,7aS)-2-fluorotetrahydro-1H-pyrrolizin-7a(5H)-yl)methoxy)pyrido[4,3-d]pyrimidin-7-yl)-4-(trifluoromethyl)aniline], the half-maximal inhibitory concentration (IC50) came out at 12 nM. Compound `Nc1nc2c(-c3c(C(F)(F)F)cc4c(N[C@H]5C[C@@H](CO)C5)nc(OC[C@@]56CCCN5C[C@H](F)C6)nc4c3F)ccc(F)c2s1` [Example 20, ((cis)-3-((7-(2-amino-7-fluorobenzo[d]thiazol-4-yl)-8-fluoro-2-(((2R,7aS)-2-fluorotetrahydro-1H-pyrrolizin-7a(5H)-yl)methoxy)-6-(trifluoromethyl)quinazolin-4-yl)amino)cyclobutyl)methanol] registered an IC50 of 7.9 nM. For `C[C@@H]1CCN(c2nc(OC[C@@]34CCCN3C[C@H](F)C4)nc3c(F)c(-c4ccc(F)c5sc(N)nc45)c(C(F)(F)F)cc23)C1` [Example 54, 7-fluoro-4-(8-fluoro-2-(((2R,7aS)-2-fluorotetrahydro-1H-pyrrolizin-7a(5H)-yl)methoxy)-4-((R)-3-methylpyrrolidin-1-yl)-6-(trifluoromethyl)quinazolin-7-yl)benzo[d]thiazol-2-amine], the IC50 stood at 41 nM. Compound `Nc1nc2c(-c3c(C(F)(F)F)cc4c(N[C@H]5C[C@@H](F)C5)nc(OC[C@@]56CCCN5C[C@H](F)C6)nc4c3F)ccc(F)c2s1` [Example 15, 7-fluoro-4-(8-fluoro-4-(((cis)-3-fluorocyclobutyl)amino)-2-(((2R,7aS)-2-fluorotetrahydro-1H-pyrrolizin-7a(5H)-yl)methoxy)-6-(trifluoromethyl)quinazolin-7-yl)benzo[d]thiazol-2-amine] came in with a 50% inhibitory concentration (IC50) of 17 nM. Turning to `Cc1cc(N)nc(-c2c(Cl)cc3c(N4CCC5(CC4)CN(C)C(=O)O5)nc(OC[C@@]45CCCN4C[C@H](F)C5)nc3c2F)c1C(F)(F)F` [Example 106, 8-(7-(6-amino-4-methyl-3-(trifluoromethyl)pyridin-2-yl)-6-chloro-8-fluoro-2-(((2R,7aS)-2-fluorotetrahydro-1H-pyrrolizin-7a(5H)-yl)methoxy)quinazolin-4-yl)-3-methyl-1-oxa-3,8-diazaspiro[4.5]decan-2-one], the half-maximal inhibitory concentration (IC50) turned out to be 23 nM.

Turning to `CC1CN(c2nc(OC[C@@]34CCCN3C[C@H](F)C4)nc3c(F)c(-c4cc(N)cc(Cl)c4C(F)(F)F)ncc23)CCC1C#N` (stereo partly drawn) [Example 123, 1-(7-(5-amino-3-chloro-2-(trifluoromethyl)phenyl)-8-fluoro-2-(((2R,7aS)-2-fluorotetrahydro-1H-pyrrolizin-7a(5H)-yl)methoxy)pyrido[4,3-d]pyrimidin-4-yl)-3-methylpiperidine-4-carbonitrile], the IC50 was determined as 22 nM. Then `CC1CN(c2nc(OC[C@@]34CCCN3C[C@H](F)C4)nc3c(F)c(-c4ccc(F)c5sc(N)nc45)c(C(F)(F)F)cc23)CCC1C#N` (stereo partly drawn) [Example 73, 1-(7-(2-amino-7-fluorobenzo[d]thiazol-4-yl)-8-fluoro-2-(((2R,7aS)-2-fluorotetrahydro-1H-pyrrolizin-7a(5H)-yl)methoxy)-6-(trifluoromethyl)quinazolin-4-yl)-3-methylpiperidine-4-carbonitrile], with 6.8 nM; and `Nc1cc(Cl)c(C(F)(F)F)c(-c2ncc3c(N4CCC(O)CC4)nc(OC[C@@]45CCCN4C[C@H](F)C5)nc3c2F)c1` [Example 127, 1-(7-(5-amino-3-chloro-2-(trifluoromethyl)phenyl)-8-fluoro-2-(((2R,7aS)-2-fluorotetrahydro-1H-pyrrolizin-7a(5H)-yl)methoxy)pyrido[4,3-d]pyrimidin-4-yl)piperidin-4-ol], with 21 nM. `Nc1nc2c(-c3c(C(F)(F)F)cc4c(N5CC[C@H](CO)C5)nc(OC[C@@]56CCCN5C[C@H](F)C6)nc4c3F)ccc(F)c2s1` [Example 66, ((3S)-1-(7-(2-amino-7-fluorobenzo[d]thiazol-4-yl)-8-fluoro-2-(((2R,7aS)-2-fluorotetrahydro-1H-pyrrolizin-7a(5H)-yl)methoxy)-6-(trifluoromethyl)quinazolin-4-yl)pyrrolidin-3-yl)methanol] had a 50% inhibitory concentration (IC50) of 7.7 nM. For the compound `Nc1nc2c(-c3c(C(F)(F)F)cc4c(N5CCCC(O)CC5)nc(OC[C@@]56CCCN5C[C@H](F)C6)nc4c3F)ccc(F)c2s1` (stereo partly drawn) [Example 84, 1-(7-(2-amino-7-fluorobenzo[d]thiazol-4-yl)-8-fluoro-2-(((2R,7aS)-2-fluorotetrahydro-1H-pyrrolizin-7a(5H)-yl)methoxy)-6-(trifluoromethyl)quinazolin-4-yl)azepan-4-ol], the IC50 stood at 0.98 nM. Then `Nc1nc2c(-c3c(C(F)(F)F)cc4c(N5CCC6(CC5)CN(CCO)C(=O)O6)nc(OC[C@@]56CCCN5C[C@H](F)C6)nc4c3F)ccc(F)c2s1` [Example 93, 8-(7-(2-amino-7-fluorobenzo[d]thiazol-4-yl)-8-fluoro-2-(((2R,7aS)-2-fluorotetrahydro-1H-pyrrolizin-7a(5H)-yl)methoxy)-6-(trifluoromethyl)quinazolin-4-yl)-3-(2-hydroxyethyl)-1-oxa-3,8-diazaspiro[4.5]decan-2-one], with 2.2 nM; and `CC[C@H]1COCCN1c1nc(OC[C@@]23CCCN2C[C@H](F)C3)nc2c(F)c(-c3cc(N)cc(Cl)c3C(F)(F)F)ncc12` [Example 116, 3-chloro-5-(4-((S)-3-ethylmorpholino)-8-fluoro-2-(((2R,7aS)-2-fluorotetrahydro-1H-pyrrolizin-7a(5H)-yl)methoxy)pyrido[4,3-d]pyrimidin-7-yl)-4-(trifluoromethyl)aniline], with 4.4 nM; and `C[C@H]1CCCN1c1nc(OC[C@@]23CCCN2C[C@H](F)C3)nc2c(F)c(-c3ccc(F)c4sc(N)nc34)c(C(F)(F)F)cc12` [Example 56, 7-fluoro-4-(8-fluoro-2-(((2R,7aS)-2-fluorotetrahydro-1H-pyrrolizin-7a(5H)-yl)methoxy)-4-((S)-2-methylpyrrolidin-1-yl)-6-(trifluoromethyl)quinazolin-7-yl)benzo[d]thiazol-2-amine], with 22 nM.

Regarding `Nc1nc2c(-c3c(C(F)(F)F)cc4c(N[C@H]5C[C@H](O)C5)nc(OC[C@@]56CCCN5C[C@H](F)C6)nc4c3F)ccc(F)c2s1` [Example 12, (trans)-3-((7-(2-amino-7-fluorobenzo[d]thiazol-4-yl)-8-fluoro-2(((2R,7aS)-2-fluorotetrahydro-1H-pyrrolizin-7a(5H)-yl)methoxy)-6-(trifluoromethyl)quinazolin-4-yl)amino)cyclobutan-1-ol], the IC50 was found to be 3.7 nM.

`CC(=O)N1C[C@@H]2[C@H](C1)[C@H]2Nc1nc(OC[C@@]23CCCN2C[C@H](F)C3)nc2c(F)c(-c3ccc(F)c4sc(N)nc34)c(Cl)cc12` [Example 30, 1-((1R,5S,6s)-6-((7-(2-amino-7-fluorobenzo[d]thiazol-4-yl)-6-chloro-8-fluoro-2-(((2R,7aS)-2-fluorotetrahydro-1H-pyrrolizin-7a(5H)-yl)methoxy)quinazolin-4-yl)amino)-3-azabicyclo[3.1.0]hexan-3-yl)ethan-1-one]: the concentration for half-maximal inhibition (IC50) came out at 3.5 nM. In turn, `Cc1nc(N)nc(-c2c(Cl)cc3c(N4CCC(C#N)CC4)nc(OC[C@@]45CCCN4C[C@H](F)C5)nc3c2F)c1C(F)(F)F` [Example 107, 1-(7-(2-amino-6-methyl-5-(trifluoromethyl)pyrimidin-4-yl)-6-chloro-8-fluoro-2-(((2R,7aS)-2-fluorotetrahydro-1H-pyrrolizin-7a(5H)-yl)methoxy)quinazolin-4-yl)piperidine-4-carbonitrile] gave a half-inhibitory concentration (IC50) of 73 nM. For the compound `Nc1nc2c(-c3c(C(F)(F)F)cc4c(N[C@H]5C[C@H]5F)nc(OC[C@@]56CCCN5C[C@H](F)C6)nc4c3F)ccc(F)c2s1` [Example 2, 7-fluoro-4-(8-fluoro-4-(((1S,2R)-2-fluorocyclopropyl)amino)-2-(((2R,7aS)-2-fluorotetrahydro-1H-pyrrolizin-7a(5H)-yl)methoxy)-6-(trifluoromethyl)quinazolin-7-yl)benzo[d]thiazol-2-amine], the IC50 amounted to 16 nM.

`N#CC1CCN(c2nc(OC[C@@]34CCCN3C[C@H](F)C4)nc3c(F)c(-c4ccc(F)c5sc(N)nc45)c(C(F)(F)F)cc23)CC1F` (stereo partly drawn) [Example 72, 1-(7-(2-amino-7-fluorobenzo[d]thiazol-4-yl)-8-fluoro-2-(((2R,7aS)-2-fluorotetrahydro-1H-pyrrolizin-7a(5H)-yl)methoxy)-6-(trifluoromethyl)quinazolin-4-yl)-3-fluoropiperidine-4-carbonitrile] returned an IC50 of 2 nM. Then `C[C@@H]1CCCN1c1nc(OC[C@@]23CCCN2C[C@H](F)C3)nc2c(F)c(-c3ccc(F)c4sc(N)nc34)c(C(F)(F)F)cc12` [Example 55, 7-fluoro-4-(8-fluoro-2-(((2R,7aS)-2-fluorotetrahydro-1H-pyrrolizin-7a(5H)-yl)methoxy)-4-((R)-2-methylpyrrolidin-1-yl)-6-(trifluoromethyl)quinazolin-7-yl)benzo[d]thiazol-2-amine], with 168 nM.

The compound `CC1(C)CCCN1c1nc(OC[C@@]23CCCN2C[C@H](F)C3)nc2c(F)c(-c3ccc(F)c4sc(N)nc34)c(C(F)(F)F)cc12` [Example 57, 4-(4-(2,2-dimethylpyrrolidin-1-yl)-8-fluoro-2-(((2R,7aS)-2-fluorotetrahydro-1H-pyrrolizin-7a(5H)-yl)methoxy)-6-(trifluoromethyl)quinazolin-7-yl)-7-fluorobenzo[d]thiazol-2-amine] returned an IC50 of 180 nM. `Nc1nc2c(-c3c(C(F)(F)F)cc4c(N5CCCC5)nc(OC[C@@]56CCCN5C[C@H](F)C6)nc4c3F)ccc(F)c2s1` [Example 50, 7-fluoro-4-(8-fluoro-2-(((2R,7aS)-2-fluorotetrahydro-1H-pyrrolizin-7a(5H)-yl)methoxy)-4-(pyrrolidin-1-yl)-6-(trifluoromethyl)quinazolin-7-yl)benzo[d]thiazol-2-amine]: the IC50 turned out to be 13 nM.
